Assay results from the NIST ThermoML archive (doi:10.1021/acs.jced.9b00752).
± gives the expanded uncertainty stated by the source.

Assay: mn = molality of the nth substance listed, in mol/kg
Conditions: 100 kPa, Liquid, Vibrating tube method

N[C@@H](Cc1ccccc1)C(=O)O [L-phenylalanine] + O
mass density [kg/m3]
Conditions	273.65 K	274.15 K	274.65 K	275.15 K	275.65 K	276.15 K	276.65 K	277.15 K	277.65 K	278.15 K
m1 = 0.0036	1000.05 ± 0.12	1000.08 ± 0.12	1000.1 ± 0.12	1000.12 ± 0.12	1000.13 ± 0.12	1000.14 ± 0.12	1000.14 ± 0.12	1000.14 ± 0.12	1000.14 ± 0.12	1000.13 ± 0.11
m1 = 0.011	1000.4 ± 0.12	1000.42 ± 0.12	1000.45 ± 0.12	1000.46 ± 0.12	1000.48 ± 0.12	1000.49 ± 0.12	1000.49 ± 0.12	1000.49 ± 0.11	1000.49 ± 0.11	1000.48 ± 0.11
m1 = 0.0183	1000.75 ± 0.12	1000.77 ± 0.12	1000.79 ± 0.12	1000.81 ± 0.12	1000.82 ± 0.11	1000.83 ± 0.11	1000.83 ± 0.12	1000.83 ± 0.11	1000.83 ± 0.11	1000.82 ± 0.11
m1 = 0.033	1001.44 ± 0.12	1001.46 ± 0.12	1001.48 ± 0.12	1001.49 ± 0.12	1001.5 ± 0.12	1001.51 ± 0.12	1001.51 ± 0.12	1001.51 ± 0.12	1001.5 ± 0.12	1001.49 ± 0.12
m1 = 0.0443	1002.02 ± 0.12	1002.04 ± 0.12	1002.06 ± 0.12	1002.07 ± 0.12	1002.08 ± 0.12	1002.09 ± 0.12	1002.09 ± 0.12	1002.09 ± 0.12	1002.08 ± 0.12	1002.07 ± 0.12
m1 = 0.0536	1002.42 ± 0.11	1002.44 ± 0.11	1002.46 ± 0.11	1002.47 ± 0.11	1002.48 ± 0.11	1002.48 ± 0.11	1002.48 ± 0.11	1002.47 ± 0.11	1002.47 ± 0.11	1002.46 ± 0.11
m1 = 0.0623	1002.84 ± 0.12	1002.86 ± 0.12	1002.87 ± 0.12	1002.88 ± 0.12	1002.89 ± 0.12	1002.89 ± 0.12	1002.89 ± 0.12	1002.89 ± 0.12	1002.88 ± 0.12	1002.87 ± 0.12
m1 = 0.074	1003.38 ± 0.12	1003.4 ± 0.12	1003.42 ± 0.12	1003.43 ± 0.12	1003.43 ± 0.12	1003.43 ± 0.12	1003.43 ± 0.12	1003.43 ± 0.12	1003.42 ± 0.12	1003.41 ± 0.12
m1 = 0.0855	1003.95 ± 0.12	1003.96 ± 0.12	1003.98 ± 0.12	1003.99 ± 0.12	1003.99 ± 0.12	1004 ± 0.12	1003.99 ± 0.12	1003.98 ± 0.12	1003.97 ± 0.12	1003.96 ± 0.12
m1 = 0.0981	1004.56 ± 0.12	1004.58 ± 0.12	1004.59 ± 0.12	1004.6 ± 0.12	1004.6 ± 0.12	1004.6 ± 0.12	1004.59 ± 0.12	1004.59 ± 0.12	1004.57 ± 0.12	1004.56 ± 0.12
m1 = 0.1158	1005.44 ± 0.12	1005.46 ± 0.12	1005.47 ± 0.12	1005.47 ± 0.12	1005.47 ± 0.12	1005.47 ± 0.12	1005.46 ± 0.12	1005.45 ± 0.12	1005.44 ± 0.12	1005.42 ± 0.12
